Source: ChEMBL document CHEMBL1130203, “Novel fluoroquinolone antibacterial agents containing oxime-substituted (aminomethyl)pyrrolidines: synthesis and antibacterial activity of 7-(4-(aminomethyl)-3-(methoxyimino)pyrrolidin-1-yl)-1-cyclopropyl-6- fluoro-4-oxo-1,4-dihydro[1,8]naphthyridine-3-carboxylic acid (LB20304)” (J Med Chem, 1997)
In brackets after ≈: the same amount, converted by molar mass.

Key:
[1] = system: Acinetobacter calcoaceticus; assay: Minimum inhibitory concentration (MIC) against Acinetobacter calcoaceticus; type: functional
Bacillus subtilis = assay: Minimum inhibitory concentration (MIC) against Bacillus subtilis ATCC 6633; type: functional
Escherichia coli [2] = assay: Minimum inhibitory concentration (MIC) against Escherichia coli 10536; type: functional
Escherichia coli [3] = assay: Minimum inhibitory concentration (MIC) against Escherichia coli 3190Y; type: functional
Escherichia coli [4] = assay: Minimum inhibitory concentration (MIC) against Escherichia coli TEM9 2639E; type: functional
Klebsiella aerogenes = assay: Minimum inhibitory concentration (MIC) against Klebsiella aerogenes 1082E; type: functional
Pseudomonas aeruginosa [5] = assay: Minimum inhibitory concentration (MIC) against Pseudomonas aeruginosa 1912E; type: functional
Staphylococcus aureus [6] = assay: Minimum inhibitory concentration (MIC) against Staphylococcus aureus 241; type: functional
Staphylococcus aureus [7] = assay: Minimum inhibitory concentration (MIC) against Staphylococcus aureus 6538p.; type: functional
[8] = system: Staphylococcus epidermidis; assay: Minimum inhibitory concentration (MIC) against Staphylococcus epidermidis 887E; type: functional
[9] = system: Staphylococcus epidermidis; assay: Minimum inhibitory concentration (MIC) against Staphylococcus epidermidis 178; type: functional
Staphylococcus aureus [10] = assay: Minimum inhibitory concentration (MIC) against Staphylococcus aureus giorgio; type: functional
Enterococcus faecalis = assay: Minimum inhibitory concentration (MIC) against Streptococcus faecalis 29212; type: functional
Enterobacter cloacae = assay: Minimum inhibitory concentration (MIC) against Enterobacter cloacae P99; type: functional
[11] = maximum Plasma concentration in Dog was determined after Peroral administration; type: ADME, organism-based, Canis lupus familiaris; parameters: route oral; details: po
[12] = maximum Plasma concentration in Rats was determined after Peroral administration; type: ADME, organism-based; parameters: route oral; details: rat, po
[13] = Area under curve was determined in Dogs after peroral administration; type: ADME, organism-based, Canis lupus familiaris; details: dog, in vivo, po
[14] = Area under curve was determined in Rats after peroral administration; type: ADME, organism-based; details: rat, in vivo, po
[15] = Half-life in Rats was determined after Peroral administration; type: ADME, organism-based; details: rat, in vivo, po
[16] = Oral Bioavailability was determined in Dogs after Peroral administration; type: ADME, organism-based, Canis lupus familiaris; details: dog, in vivo
[17] = Oral bioavailability in rat; type: ADME, organism-based; details: in vivo
[18] = Tmax was determined in Rats after Peroral administration; type: ADME, organism-based; details: rat, in vivo, po
[19] = Tmax was determined in dogs after Peroral administration; type: ADME, organism-based, Canis lupus familiaris; details: dog, in vivo, po
[20] = system: Acinetobacter calcoaceticus; assay: Minimum inhibitory concentration (MIC) against Acinetobacter calcoaceticus 15473; type: functional
[21] = Half-life in Dogs was determined after Peroral administration; type: ADME, organism-based, Canis lupus familiaris; details: dog, in vivo, po
Mus musculus [22] = species on record: Mus musculus; assay: 50% Effective dose against systemic Infection in mouse by Escherichia coli 851E; type: functional
Mus musculus [23] = species on record: Mus musculus; assay: 50% Effective dose against systemic Infection in mouse by Pseudomonas aeruginosa 1912E; type: functional
Mus musculus [24] = species on record: Mus musculus; assay: 50% Effective dose against systemic Infection in mouse by Staphylococcus aureus giorgio; type: functional
Mus musculus [25] = species on record: Mus musculus; assay: 50% Effective dose against systemic Infection in mouse by Streptococcus pneumoniae 77A; type: functional
Mus musculus [26] = species on record: Mus musculus; assay: Minimum inhibitory concentration (MIC) against systemic infection in mouse by Staphylococcus aureus giorgio; type: functional
Mus musculus [27] = species on record: Mus musculus; assay: Minimum inhibitory concentration (MIC) against systemic infection in mouse by Streptococcus pneumoniae 77A; type: functional
Escherichia coli [28] = assay: Minimum inhibitory concentration (MIC) against Escherichia coli 851E
Pseudomonas aeruginosa [29] = assay: Minimum inhibitory concentration (MIC) against Pseudomonas aeruginosa 1912E
Mus musculus [30] = species on record: Mus musculus; assay: 50% Effective Dose against systemic infection in mouse by Pseudomonas aeruginosa 1912E; type: functional
Mus musculus [31] = species on record: Mus musculus; assay: 50% Effective Dose against systemic infection in mouse by Staphylococcus aureus giorgo; type: functional
Mus musculus [32] = species on record: Mus musculus; assay: 50% Effective Dose against systemic infection in mouse by Escherichia coli 851E; type: functional
Streptococcus pneumoniae = assay: Minimum inhibitory concentration (MIC) against Streptococcus pneumoniae 77A
Staphylococcus aureus [33] = assay: Minimum inhibitory concentration (MIC) against Staphylococcus aureus giorgo
[34] = Escherichia coli, read-out: MIC
[35] = Klebsiella aerogenes, read-out: MIC
[36] = Pseudomonas aeruginosa, read-out: MIC
[37] = Staphylococcus aureus, read-out: MIC
[38] = Staphylococcus epidermidis, read-out: MIC
[39] = Enterococcus faecalis, read-out: MIC

SMILES | MIC (Bacillus subtilis) [µg/mL] | MIC (Escherichia coli [2]) [µg/mL] | MIC (Escherichia coli [3]) [µg/mL] | MIC (Escherichia coli [4]; [34]) [µg/mL] | MIC (Klebsiella aerogenes; [35]) [µg/mL] | MIC (Pseudomonas aeruginosa [5]; [36]) [µg/mL] | MIC (Staphylococcus aureus [6]; [37]) [µg/mL] | MIC (Staphylococcus aureus [7]) [µg/mL] | MIC [8] [µg/mL] | MIC [9, 38] [µg/mL] | MIC (Staphylococcus aureus [10]) [µg/mL] | MIC (Enterococcus faecalis; [39]) [µg/mL] | MIC (Enterobacter cloacae) [µg/mL] | Cmax [12] [ng/mL] | AUC [14] [ng·h/mL] | half-life [15] [h] | bioavailability [17] [%] | Tmax [18] [h] | MIC (Escherichia coli [28]) [µg/mL] | MIC (Pseudomonas aeruginosa [29]) [µg/mL] | other results
CO/N=C1\CN(c2c(F)cc3c(=O)c(C(=O)O)cn(C4CC4)c3c2F)CC1CN (stereo not given) | < 0.008 | < 0.008 | < 0.008 | 0.031 (≈ 0.0763 µM) | 0.031 (≈ 0.0763 µM) | 0.25 (≈ 0.615 µM) | 0.5 (≈ 1.23 µM) | < 0.008 | < 0.008 | 0.5 (≈ 1.23 µM) | < 0.008 | 0.031 (≈ 0.0763 µM) | 0.016 (≈ 0.0394 µM) |  |  |  |  |  |  |  | MIC [1]: 0.031 µg/mL (≈ 0.0763 µM)
CO/N=C1\CN(c2nc3c(cc2F)c(=O)c(C(=O)O)cn3C2CC2)CC1CN (stereo in doubt; 20) [GEMIFLOXACIN] |  |  |  |  |  |  |  |  |  |  |  |  |  | 2440 | 8500 | 2.33 | 95.3 | 0.33 | < 0.008 | 0.25 (≈ 0.642 µM) | Cmax [11]: 1340 ng/mL; AUC [13]: 7550 ng·h/mL; bioavailability [16]: 71%; Tmax [19]: 1.13 h; MIC [20]: 0.063 µg/mL (≈ 0.162 µM); half-life [21]: 5.12 h; MIC (Escherichia coli [4]): 0.031 µg/mL (≈ 0.0796 µM); MIC (Klebsiella aerogenes): 0.031 µg/mL (≈ 0.0796 µM); ED50 (Mus musculus [22]): 0.47 mg/kg; ED50 (Mus musculus [23]): 2.08 mg/kg; ED50 (Mus musculus [24]): 1.17 mg/kg; ED50 (Mus musculus [25]): 7.64 mg/kg; MIC (Mus musculus [26]): < 0.008 µg/mL; MIC (Mus musculus [27]): 0.016 µg/mL (≈ 0.0411 µM); MIC (Pseudomonas aeruginosa [5]): 0.25 µg/mL (≈ 0.642 µM); MIC (Staphylococcus aureus [6]): 4 µg/mL (≈ 10.3 µM); MIC [9]: 4 µg/mL (≈ 10.3 µM); MIC (Enterococcus faecalis): 0.063 µg/mL (≈ 0.162 µM)
NCC1CCN(c2nc3c(cc2F)c(=O)c(C(=O)O)cn3C2CC2)C1 (stereo not given) | 0.016 (≈ 0.0462 µM) | 0.031 (≈ 0.0895 µM) | < 0.008 | 0.063 (≈ 0.182 µM) | 0.063 (≈ 0.182 µM) | 0.5 (≈ 1.44 µM) | 16 (≈ 46.2 µM) | 0.031 (≈ 0.0895 µM) | 0.016 (≈ 0.0462 µM) | 32 (≈ 92.4 µM) | 0.031 (≈ 0.0895 µM) | 0.13 (≈ 0.375 µM) | 0.031 (≈ 0.0895 µM) | 300 | 380 | 2.2 | 10.1 | 0.17 | 0.031 (≈ 0.0895 µM) | 0.5 (≈ 1.44 µM) | MIC ([20]; Acinetobacter calcoaceticus, read-out: MIC): 0.13 µg/mL (≈ 0.375 µM); ED50 (Mus musculus [30]): 29.8 mg/kg; ED50 (Mus musculus [31]): 8.03 mg/kg; ED50 (Mus musculus [32]): > 13.5 mg/kg; MIC (Streptococcus pneumoniae): 0.063 µg/mL (≈ 0.182 µM); MIC (Staphylococcus aureus [33]): 0.031 µg/mL (≈ 0.0895 µM)
